Measurements from patent US9410958B2, “Alkyne-activated fluorogenic azide compounds and methods of use thereof” (The Regents of the University of California, priority 2014, dated 2016).
“Also recorded” adds a separate entry of the source. Like-named read-outs stand apart in the source and are kept apart here. Marks after values point to notes of the source that are not given here.

What was measured:
[1] = data from Shieh et al. 2014; cited from earlier work
[2] = Photophysical properties and fluorescence quantum yields of Si-rhodamines in PBS pH 7.4; type: physicochemical; conditions: for Φfl: cresyl violet in methanol as standard
Protocol: The fluorescence quantum yields of the purified amino, azido, and triazolyl Si-rhodamines were measured in pH 7.4 phosphate buffered saline (PBS) using cresyl violet in methanol (Φfl=0.54) as a standard (Table 1). […] The best candidate of the four, 8-azidonaphthyl-substituted Si-rhodamine 1, afforded only a 5-fold increase in fluorescence quantum yield as compared with the 29-fold enhancement observed with the corresponding fluorescein.
Fluorescence quantum yields were measured by creating 2 mM stocks of dyes in MeOH. The dyes were then diluted to 20 μM in PBS, then further diluted in PBS to various final concentrations. The absorbance and emission spectra of five different concentrations of dye were measured while keeping maximum absorbance under 0.2. Solutions of probe were excited at 600 nm, and emission was integrated from 600 to 800 nm. Plotting integrated emission vs. absorbance at 600 nm yielded a line, whose slope corresponds to the fluorescence quantum yield. Absolute quantum yields were determined by comparison with the slope of the line measured for cresyl violet in MeOH (Φfl=0.54). The reported quantum yields are the average of three sets of measurements. Absorbance spectra were recorded on a Varian Cary 50 UV-Visible spectrophotometer. Fluorescence spectra were recorded on a Photon Technology International Quanta Master 4 L-format scanning spectrofluorometer equipped with an LPS-220B 75-W xenon lamp and power supply, A-1010B lamp housing with an integrated igniter, switchable 814 photon counting/analog photomultiplier detection unit, and MD5020 motor driver. Measurements were made in 1 cm×0.4 cm quartz cuvettes with a total sample volume of 1 mL.

[3] = test system: CHO K1 cells; experiment: No-wash cell surface labeling of SiaNAl residues, CHO K1; type: cell-based
Protocol: Si-rhodamine 10 was evaluated as a reagent for imaging SiaNAl residues on live cell surfaces. CHO K1 cells were incubated with 50 μM Ac4ManNAl for 3 days, washed, and then incubated with 5 μM 10, 50 μM CuSO4, 300 μM BTTAA, and 1 mM sodium ascorbate. […] Cell-surface glycan labeling was visualized as it occurred in real time (FIG. 14). Background labeling was minimal on control cells treated with N-acetylmannosamine (Ac4ManNAc) (FIG. 13).

[4] = test system: HEK 293T cells; experiment: No-wash live cell surface labeling and mitochondrial co-staining, HEK 293T; conditions: HEK 293T
Protocol: Cells were grown in 8-well Lab-Tek Chambered Coverglass systems in media (HAM-F12 for CHO K1 cells, DMEM for HEK 293T cells) containing 10% fetal bovine serum, penicillin/streptomycin, and either 50 μM Ac4ManNAl or Ac4ManNAc for 3 d at 37° C., as described previously. The cells were then washed with 3×300 μL PBS, then incubated with 100 μL freshly prepared click solution. Click solution comprised of 50 μM CuSO4, 300 μM BTTAA, 2.5 mM sodium ascorbate, and 5 μM azido Si-rhodamine. This was prepared by first adding 0.5 μL 50 mM CuSO4 in H2O and 3 μL 50 mM BTTAA in H2O to 481.5 μL PBS. Next, 12.5 μL freshly prepared 100 mM sodium ascorbate in PBS was added. Finally, 2.5 μL 1 mM azido Si-rhodamine in 4:1 PBS/MeOH was added. After 15 min, the reactions were quenched with the addition of 1 μL of 100 mM bathocuproine disulfonate (BCS) in H2O (final concentration 1 mM). […] For real-time imaging, images were acquired as the labeling progressed without quenching the reaction.
HEK 293T cells were grown in a LabTek 8-well chambered glass slide in DMEM containing fetal bovine serum, penicillin/streptomycin for 3 d at 37° C. The cells were then incubated with 100 nM MitoTracker Green FM and 1 μg/mL Hoechst 33342 in fresh media for 30 min at 37° C., then media removed and the cells incubated with 100 μL PBS containing 5 μM 10. The cells were then directly imaged.
The CalFluors' performance in no-wash cell imaging experiments was evaluated. Using established methods, cell-surface glycoconjugates were metabolically labeled with peracetylated N-pentynoyl mannosamine (Ac4ManNAl), which introduces terminal alkyne groups into sialic acid residues (SiaNAl). HEK 293T cells treated in this fashion were then incubated, without fixation, with a cocktail containing 50 μM CuSO4, 300 μM BTTAA, 5 mM sodium ascorbate and 10 μM CalFluor dye.
Cells were grown with 50 μM Ac4ManNAl or Ac4ManNAc for 3 days, then subjected to click labeling with CalFluor probes. (A) Labeling glycoproteins on live cell surfaces. Cells were treated with 10 μM azide probe, 50 μM CuSO4, 300 μM BTTAA ligand, and 5 mM sodium ascorbate. The reaction was quenched with 1 mM BCS and the cells imaged without further wash steps. (B) Labeling glycoproteins on fixed cells. Cells were fixed with 3% paraformaldehyde, then treated with 10 μM CalFluor probe, 1 mM CuSO4, 100 μM TBTA ligand, and 2 mM sodium ascorbate. 0.1 mg/mL BSA was added to prevent the TBTA from precipitating over the course of the reaction.

[5] = test system: wild-type L. monocytogenes; experiment: D-alanine competition experiment; conditions: 5 mM cyclooctyne amino acid, 0 or 20 mM D-alanine
Protocol: The bacteria were incubated with 5 mM cyclooctyne amino acid, in the presence of either 0 or 20 mM D-alanine, and labeled following the general procedure.
Bacteria were grown to an optical density (OD) of 0.4 in their respective media (7H9 for M. smegmatis, LB for C. glutamicum, BHI for L. monocytogenes) at 37° C. (M. smegmatis and L. monocytogenes) or 30° C. (C. glutamicum). Then, 5 mM D-amino acid was added (from a 1 M stock in H2O, 1 eq. NaOH was added to help solubilize compounds 12, 13, and 14) and the cells grown for one doubling time. The bacteria were then added to a 96-well V-bottom plate at 200 μL/well and pelleted by centrifugation at 3500 rpm for 3 min. The supernatant was removed and the cells resuspended in 200 μL PBS and pelleted again. This wash process was repeated twice more. The cells were then incubated with 100 μL of 20 μM azido-PEG3-carboxyrhodamine 110 (Click Chemistry Tools) in PBS (made by diluting a 1 mM stock in 9:1 PBS/DMSO) and placed in a 37° C. shaker for 1 h. Alternatively, for alkDala, labeling was performed by incubation with 100 μL of 20 μM azido-PEG3-carboxyrhodamine 110, 128 μM TBTA, 1 mM CuSO4, and 1.2 mM sodium ascorbate in PBS in a 37° C. shaker for 1 h. The cells were washed three times, then fixed with 4% paraformaldehyde for 10 min at rt. The cells were washed another three times, then studied by flow cytometry and microscopy.

[6] = decrease (↓), amine relative to the azide
[7] = increase (↑), triazole relative to the azide

| SMILES | λabs [2] [nm] | λem [2] [nm] | Φfl [2] | Change in Φfl [2, 6] | Change in Φfl [2, 7] | other results |
| --- | --- | --- | --- | --- | --- | --- |
| COc1cc(OC)c(-n2cc(CCC(=O)NCCO)nn2)cc1C1=C2C=CC(=[N+](C)C)C=C2[Si](C)(C)c2cc(N(C)C)ccc21 [2 triazole] | – | – | – | – | – | Enhancement [1]: 48x^a; Φfl [1]: 0.20^a; λem [1]: 668 nm^a; λmax [1]: 665 nm^a |
| CN(C)c1ccc2c(c1)[Si](C)(C)C1=CC(=[N+](C)C)C=CC1=C2c1ccc(N)c2ccccc12 [Compound 1-NH2] | 653 | 669 | 0.0016 | 24-fold ↓ | – | – |
| CN(C)c1ccc2c(c1)[Si](C)(C)C1=CC(=[N+](C)C)C=CC1=C2c1ccc(-n2cc(CCC(=O)NCCO)nn2)c2ccccc12 [Compound 1-triazole] | 656 | 670 | 0.19 | – | 5.0-fold ↑ | – |
| COc1ccc(N=[N+]=[N-])cc1C1=C2C=CC(=[N+](C)C)C=C2[Si](C)(C)c2cc(N(C)C)ccc21 [Compound 2-N3] | 653 | 667 | 0.081 | – | – | – |
| COc1ccc(N)cc1C1=C2C=CC(=[N+](C)C)C=C2[Si](C)(C)c2cc(N(C)C)ccc21 [Compound 2-NH2] | 650 | 669 | 0.0025 | 32-fold ↓ | – | – |
| COc1ccc(-n2cc(CCC(=O)NCCO)nn2)cc1C1=C2C=CC(=[N+](C)C)C=C2[Si](C)(C)c2cc(N(C)C)ccc21 [Compound 2-triazole] | 655 | 669 | 0.19 | – | 2.3-fold ↑ | – |
| CN(C)c1ccc2c(c1)[Si](C)(C)C1=CC(=[N+](C)C)C=CC1=C2c1cc(N=[N+]=[N-])ccc1N1CCOCC1 [Compound 3-N3] | 656 | 667 | 0.0014 | – | – | – |
| CN(C)c1ccc2c(c1)[Si](C)(C)C1=CC(=[N+](C)C)C=CC1=C2c1cc(N)ccc1N1CCOCC1 [Compound 3-NH2] | 650 | 672 | 0.00096 | 1.4-fold ↓ | – | – |
| CN(C)c1ccc2c(c1)[Si](C)(C)C1=CC(=[N+](C)C)C=CC1=C2c1cc(-n2cc(CCC(=O)NCCO)nn2)ccc1N1CCOCC1 [Compound 3-triazole] | 663 | 676 | 0.0015 | – | 1.1-fold ↑ | – |
| CN(C)c1ccc2c(c1)[Si](C)(C)C1=CC(=[N+](C)C)C=CC1=C2c1cc(N=[N+]=[N-])cc2[nH]ccc12 [Compound 4-N3] | 660 | 669 | 0.0048 | – | – | – |
| CN(C)c1ccc2c(c1)[Si](C)(C)C1=CC(=[N+](C)C)C=CC1=C2c1cc(N)cc2[nH]ccc12 [Compound 4-NH2] | 650 | 673 | 0.00088 | 5.5-fold ↓ | – | – |
| CN(C)c1ccc2c(c1)[Si](C)(C)C1=CC(=[N+](C)C)C=CC1=C2c1cc(-n2cc(CCC(=O)NCCO)nn2)cc2[nH]ccc12 [Compound 4-triazole] | 654 | 668 | 0.0088 | – | 1.8-fold ↑ | – |
| CN(C)c1ccc2c(c1)[Si](C)(C)C1=CC(=[N+](C)C)C=CC1=C2c1cc(N=[N+]=[N-])cc2c1OCCO2 [Compound 5-N3] | 655 | 668 | 0.019 | – | – | – |
| CN(C)c1ccc2c(c1)[Si](C)(C)C1=CC(=[N+](C)C)C=CC1=C2c1cc(N)cc2c1OCCO2 [Compound 5-NH2] | 653 | 667 | 0.00093 | 21-fold ↓ | – | – |
| CN(C)c1ccc2c(c1)[Si](C)(C)C1=CC(=[N+](C)C)C=CC1=C2c1cc(-n2cc(CCC(=O)NCCO)nn2)cc2c1OCCO2 [Compound 5-triazole] | 656 | 668 | 0.18 | – | 9.5-fold ↑ | – |
| COc1cc(N=[N+]=[N-])cc(C2=C3C=CC(=[N+](C)C)C=C3[Si](C)(C)c3cc(N(C)C)ccc32)c1OC [Compound 6-N3] | 654 | 669 | 0.039 | – | – | – |
| COc1cc(N)cc(C2=C3C=CC(=[N+](C)C)C=C3[Si](C)(C)c3cc(N(C)C)ccc32)c1OC [Compound 6-NH2] | 652 | 665 | 0.00067 | 58-fold ↓ | – | – |
| COc1cc(-n2cc(CCC(=O)NCCO)nn2)cc(C2=C3C=CC(=[N+](C)C)C=C3[Si](C)(C)c3cc(N(C)C)ccc32)c1OC [Compound 6-triazole] | 656 | 670 | 0.18 | – | 4.6-fold ↑ | – |
| COc1cc(C)c(C2=C3C=CC(=[N+](C)C)C=C3[Si](C)(C)c3cc(N(C)C)ccc32)cc1N=[N+]=[N-] [Compound 7-N3] | 650 | 666 | 0.066 | – | – | – |
| COc1cc(C)c(C2=C3C=CC(=[N+](C)C)C=C3[Si](C)(C)c3cc(N(C)C)ccc32)cc1N [Compound 7-NH2] | 648 | 669 | 0.0015 | 45-fold ↓ | – | – |
| COc1cc(C)c(C2=C3C=CC(=[N+](C)C)C=C3[Si](C)(C)c3cc(N(C)C)ccc32)cc1-n1cc(CCC(=O)NCCO)nn1 [Compound 7-triazole] | 652 | 666 | 0.25 | – | 3.7-fold ↑ | – |
| COc1cc(N=[N+]=[N-])c(OC)c(C2=C3C=CC(=[N+](C)C)C=C3[Si](C)(C)c3cc(N(C)C)ccc32)c1 [Compound 8-N3] | 655 | 669 | 0.051 | – | – | – |
| COc1cc(N)c(OC)c(C2=C3C=CC(=[N+](C)C)C=C3[Si](C)(C)c3cc(N(C)C)ccc32)c1 [Compound 8-NH2] | 654 | 672 | 0.0012 | 41-fold ↓ | – | – |
| COc1cc(C2=C3C=CC(=[N+](C)C)C=C3[Si](C)(C)c3cc(N(C)C)ccc32)c(OC)c(-n2cc(CCC(=O)NCCO)nn2)c1 [Compound 8-triazole] | 657 | 671 | 0.16 | – | 3.2-fold ↑ | – |
| COc1cc(OC)c(C2=C3C=CC(=[N+](C)C)C=C3[Si](C)(C)c3cc(N(C)C)ccc32)cc1N [Compound 9-NH2] | 650 | 664 | 0.0014 | 3.0-fold ↓ | – | – |
| COc1cc(OC)c(-n2cc(CCC(=O)NCCO)nn2)cc1C1=C2C=CC(=[N+](C)C)C=C2[Si](C)(C)c2cc(N(C)C)ccc21 [Compound 9-triazole] | 655 | 668 | 0.20 | – | 48-fold ↑ | – |
| COCCOCCOCCOc1cc(OCCOCCOCCOC)c(C2=C3C=CC(=[N+](C)C)C=C3[Si](C)(C)c3cc(N(C)C)ccc32)cc1N=[N+]=[N-] [Compound 10] | – | – | – | – | – | cell-surface labeling ([3]; Ac4ManNAl-treated CHO K1, no wash, 15 min): robust cell-surface labeling; background labeling ([3]; CHO K1, control or unwanted labeling): minimal; background, intracellular or mitochondrial labeling [4]: mitochondrial staining; also recorded: punctate fluorescence appeared within the cells almost immediately |
| NC(CNC(=O)OC1C#CCCCCC1)C(=O)O (stereo not drawn) [Compound 12] | – | – | – | – | – | effect of excess D-alanine on labeling [5]: excess D-alanine decreases the fluorescence intensity |
| NC(CNC(=O)OC[C@H]1[C@@H]2CCC#CCC[C@@H]21)C(=O)O (stereo partly drawn) [Compound 13] | – | – | – | – | – | effect of excess D-alanine on labeling [5]: excess D-alanine decreases the fluorescence intensity |
